A word on the EC50: it is the concentration at which the effect is half-maximal.

The target in this experiment is T1, CFTR (F508del/MF-HBE cells) (Homo sapiens, UniProt P13569, DEL508-508).
T1 construct: human bronchial epithelial (HBE) cells derived from CF subjects heterozygous for F508del and a minimal function CFTR mutation (F508del/MF-HBE); endogenous in cells; host or cells: Primary human bronchial epithelial cells from CF subjects (F508del/MF genotype), differentiated at an air-liquid interface
T1 sequence (P13569 with tags, fused parts or gaps DEL508-508): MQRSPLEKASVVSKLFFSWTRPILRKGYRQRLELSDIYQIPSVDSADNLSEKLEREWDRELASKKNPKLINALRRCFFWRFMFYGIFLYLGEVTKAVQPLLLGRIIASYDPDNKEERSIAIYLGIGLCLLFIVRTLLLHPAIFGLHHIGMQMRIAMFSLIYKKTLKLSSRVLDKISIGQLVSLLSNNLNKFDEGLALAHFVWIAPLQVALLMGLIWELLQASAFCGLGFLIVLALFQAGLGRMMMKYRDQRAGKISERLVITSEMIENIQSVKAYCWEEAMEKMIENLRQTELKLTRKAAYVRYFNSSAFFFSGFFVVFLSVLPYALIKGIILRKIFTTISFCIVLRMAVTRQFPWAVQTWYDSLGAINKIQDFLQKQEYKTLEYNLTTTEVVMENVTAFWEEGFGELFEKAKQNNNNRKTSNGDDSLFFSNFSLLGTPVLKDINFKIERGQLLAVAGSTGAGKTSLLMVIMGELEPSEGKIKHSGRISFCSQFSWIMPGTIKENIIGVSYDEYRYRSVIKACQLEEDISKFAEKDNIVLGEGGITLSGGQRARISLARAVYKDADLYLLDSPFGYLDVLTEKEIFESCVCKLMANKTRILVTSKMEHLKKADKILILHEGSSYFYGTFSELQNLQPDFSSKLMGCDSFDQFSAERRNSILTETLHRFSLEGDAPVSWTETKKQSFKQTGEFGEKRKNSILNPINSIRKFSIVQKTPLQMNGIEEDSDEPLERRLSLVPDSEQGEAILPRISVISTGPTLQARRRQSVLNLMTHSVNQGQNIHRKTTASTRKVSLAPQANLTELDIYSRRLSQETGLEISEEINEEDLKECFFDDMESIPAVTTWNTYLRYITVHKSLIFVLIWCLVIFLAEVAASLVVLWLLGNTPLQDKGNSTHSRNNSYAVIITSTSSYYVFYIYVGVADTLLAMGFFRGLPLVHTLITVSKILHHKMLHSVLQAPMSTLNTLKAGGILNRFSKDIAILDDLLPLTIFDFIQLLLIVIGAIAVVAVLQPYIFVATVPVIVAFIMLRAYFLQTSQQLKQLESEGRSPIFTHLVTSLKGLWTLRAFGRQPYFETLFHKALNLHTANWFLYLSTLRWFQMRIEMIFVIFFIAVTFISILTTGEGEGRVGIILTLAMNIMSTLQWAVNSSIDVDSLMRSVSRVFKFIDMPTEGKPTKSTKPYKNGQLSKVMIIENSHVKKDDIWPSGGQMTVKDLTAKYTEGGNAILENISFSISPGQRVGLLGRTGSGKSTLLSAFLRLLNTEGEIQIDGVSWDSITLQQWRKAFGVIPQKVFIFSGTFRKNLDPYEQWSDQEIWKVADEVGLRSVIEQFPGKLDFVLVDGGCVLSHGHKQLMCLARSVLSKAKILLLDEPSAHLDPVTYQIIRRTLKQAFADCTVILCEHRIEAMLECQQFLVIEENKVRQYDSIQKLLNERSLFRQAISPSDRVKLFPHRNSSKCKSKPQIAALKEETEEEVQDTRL
Put plainly: Ussing chamber assay of CFTR-mediated short-circuit currents, Assay A (0.1 μM to 25 μM, 6 concentrations). It counts as cell-based. Conditions: with 33 nM potentiator and 18 μM Tezacaftor, 20% human serum; for Emax: 18-24 hours, read-out: A Max activity (%). The procedure:
Ussing chamber experiments were performed using human bronchial epithelial (HBE) cells derived from CF subjects heterozygous for F508del and a minimal function CFTR mutation (F508del/MF-HBE) and cultured as previously described (Neuberger T, Burton B, Clark H, Van Goor F Methods Mol Biol 2011:741:39-54). After four days the apical media was removed, and the cells were grown at an air liquid interface for >14 days prior to use.
To isolate the CFTR-mediated short-circuit (ISC) current, F508del/MF-HBE grown on Costar® Snapwell™ cell culture inserts were mounted in an Ussing chamber and the transepithelial ISC was measured under voltage-clamp recording conditions (Vhold=0 mV) at 37° C. The basolateral solution contained (in mM) 145 NaCl, 0.83 K2HPO4, 3.3 KH2PO4, 1.2 MgCl2, 1.2 CaCl2, 10 Glucose, 10 HEPES (pH adjusted to 7.4 with NaOH) and the apical solution contained (in mM) 145 NaGluconate, 1.2 MgCl2, 1.2 CaCl2, 10 glucose, 10 HEPES (pH adjusted to 7.4 with NaOH) and 30 μM amiloride to block the epithelial sodium channel. Forskolin (20 μM) was added to the apical surface to activate CFTR, followed by apical addition of a CFTR inhibitor cocktail consisting of BPO, GlyH-101, and CFTR inhibitor 172 (each at 20 μM final assay concentration) to specifically isolate CFTR currents. The CFTR-mediated ISC (μA/cm^2) for each condition was determined from the peak forskolin response to the steady-state current following inhibition.
The activity of the CFTR corrector compounds on the CFTR-mediated ISC was determined in Ussing chamber studies as described above. The F508del/MF-HBE cell cultures were either incubated with the corrector compounds at a range of concentrations in combination with 33 nM (6R,12R)-17-amino-12-methyl-6,15-bis(trifluoromethyl)-13,19-dioxa-3,4,18-triazatricyclo[12.3.1.12,5]nonadeca-1(18),2,4,14,16-pentaen-6-ol and 18 μM Tezacaftor or were incubated with the corrector compounds at a single fixed concentration of 1 μM in combination with 44 nM (6R,12R)-17-amino-12-methyl-6,15-bis(trifluoromethyl)-13,19-dioxa-3,4,18-triazatricyclo[12.3.1.12,5]nonadeca-1(18),2,4,14,16-pentaen-6-ol and 18 μM Tezacaftor for 18-24 hours at 37° C. and in the presence of 20% human serum. The concentration of corrector compounds with 44 nM or 33 nM (6R,12R)-17-amino-12-methyl-6,15-bis(trifluoromethyl)-13,19-dioxa-3,4,18-triazatricyclo[12.3.1.12,5]nonadeca-1(18),2,4,14,16-pentaen-6-ol and 18 μM Tezacaftor during the 18-24 hours incubations was kept constant throughout the Ussing chamber measurement of the CFTR-mediated ISC to ensure compounds were present throughout the entire experiment. The efficacy and potency of the putative F508del correctors was compared to that of the known Vertex corrector, (14S)-8-[3-(2-{Dispiro[2.0.2.1]heptan-7-yl}ethoxy)-1H-pyrazol-1-yl]-12,12-dimethyl-2λ^6-thia-3,9,11,18,23-pentaazatetracyclo[17.3.1.111,14.05,10]tetracosa-1(22),5,7,9,19(23),20-hexaene-2,2,4-trione, in combination with 18 μM Tezacaftor and 1 μM Ivacaftor.
• Assay A: 0.1 μM to 25 μM, 6 concentrations • Assay B: 0.00001 μM to 25 μM, 12 concentrations • Assay C: 0.026 μM to 25 μM, 6 concentrations • Assay D: Activity at single concentration of 1 μM

The structures appear in SMILES notation.

`Cc1cccc(C)c1-c1cc2nc(n1)NS(=O)(=O)c1cccc(c1)C(=O)N(Cc1cnc3cc(C(C)C)n(C)c3n1)[C@H](CC1C3(CC3)C13CC3)CO2` [Compound I-100]: the Emax was > 60% and the concentration giving a half-maximal response (EC50) was < 1000 nM.
As for `Cc1cccc(C)c1-c1cc2nc(n1)NS(=O)(=O)c1cccc(c1)C(=O)N(Cc1cnc3oc(C4CC4)cc3n1)[C@H](CC(C)(C)C)CO2` [Compound I-20], the Emax was > 60% and the concentration giving a half-maximal response (EC50) was < 1000 nM.
As to `Cc1cccc(C)c1-c1cc2nc(n1)NS(=O)(=O)c1cccc(c1)C(=O)N(Cc1cnc3oc(C)c(C4CC4)c3n1)[C@H](CCC(C)(C)C)CO2` [Compound I-27], the Emax was > 60% and the EC50 is < 1000 nM.
The matching figures for `Cc1cccc(C)c1-c1cc2nc(n1)NS(=O)(=O)c1cccc(c1)C(=O)N(Cc1cnc3cc(C(C)C)n(C)c3n1)[C@H](CCC1(C)CCC1)CO2` [Compound I-41]: > 60% and < 1000 nM.
In the same order, the values of `Cc1cccc(C)c1-c1cc2nc(n1)NS(=O)(=O)c1cccc(c1)C(=O)N(Cc1cnc3cc(C(C)C)n(C)c3n1)[C@H](CCC(C)(C)F)CO2` [Compound I-106] are > 60% and < 1000 nM.
For `Cc1cccc(C)c1-c1cc2nc(n1)NS(=O)(=O)c1cccc(c1)C(=O)N(Cc1cnc3oc(C(C)C)cc3n1)[C@H](CC1CCCO1)CO2` (single isomer, unassigned) [Compound I-18], the Emax was > 60% and the concentration for a half-maximal effect (EC50) was < 1000 nM.
The matching figures for `Cc1cccc(C)c1-c1cc2nc(n1)NS(=O)(=O)c1cccc(c1)C(=O)N(Cc1cn3cccc(C#N)c3n1)[C@H](CC(C)(C)C)CO2` [III-10]: > 60% and < 1000 nM.
Regarding `Cc1cccc(C)c1-c1cc2nc(n1)NS(=O)(=O)c1cccc(c1)C(=O)N(Cc1nc3cc(C(C)C)oc3cc1F)[C@@H](COC1CCC1)CO2` (stereo in doubt) [Compound I-95], the Emax is > 60% and the 50% effective concentration (EC50) was < 1000 nM.
In the same order, the values of `Cc1cccc(C)c1-c1cc2nc(n1)NS(=O)(=O)c1cccc(c1)C(=O)N(Cc1cnc3oc(C(C)C)c(C#N)c3n1)[C@H](COC(C)C)CO2` [Compound I-91] are > 60% and < 1000 nM.
In the same order, the values of `Cc1cccc(C)c1-c1cc2nc(n1)NS(=O)(=O)c1cccc(c1)C(=O)N(Cc1cnc3oc(C(C)C)cc3n1)[C@H](CC1CCCCC1)CO2` [Compound I-9] are > 60% and < 1000 nM.
With `Cc1cccc(C)c1-c1cc2nc(n1)NS(=O)(=O)c1cccc(c1)C(=O)N(Cc1cnc3oc(C(C)C)c(C)c3n1)[C@H](COC(C)C)CO2` [Compound I-10], the Emax was > 60% and the EC50 was < 1000 nM.
Consider `Cc1cccc(C)c1-c1cc2nc(n1)NS(=O)(=O)c1cccc(c1)C(=O)N(Cc1cnc3c(n1)CC(C(C)C)O3)[C@H](CC1(C)CC1)CO2` (single isomer, unassigned) [III-13], for which the Emax was > 60% and the EC50 is < 1000 nM.
The matching figures for `Cc1cccc(C)c1-c1cc2nc(n1)NS(=O)(=O)c1cccc(c1)C(=O)N(Cc1nc3cc(C(C)C)oc3cc1F)[C@H](CC1(C)CC1)CO2` [Compound I-78]: > 60% and < 1000 nM.
The matching figures for `Cc1cccc(C)c1-c1cc2nc(n1)NS(=O)(=O)c1cccc(c1)C(=O)N(Cc1cnc3oc(C(C)C)cc3n1)[C@H](C[C@H]1CCCCO1)CO2` [Compound I-7]: > 60% and < 1000 nM.
In the case of `Cc1cccc(C)c1-c1cc2nc(n1)NS(=O)(=O)c1cccc(c1)C(=O)N(C(=O)c1cncc(N(C)C3CCC3)n1)[C@H](CC(C)(C)C)CO2` [II-32], the Emax is > 60% and the EC50 is < 1000 nM.
Regarding `Cc1cccc(C)c1-c1cc2nc(n1)NS(=O)(=O)c1cccc(c1)C(=O)N(Cc1cnc3oc(C4CC4)cc3n1)[C@H](CCC(C)(C)F)CO2` [Compound I-107], the Emax was > 60% and the EC50 was < 1000 nM.
On to `Cc1cccc(C)c1-c1cc2nc(n1)NS(=O)(=O)c1cccc(c1)C(=O)N(Cc1cnc3cc(C(C)C)n(C)c3n1)[C@H](CC13CC(C1)C3)CO2` [Compound I-40], for which the Emax is > 60% and the EC50 is < 1000 nM.
In the same order, the values of `Cc1cccc(C)c1-c1cc2nc(n1)NS(=O)(=O)c1cccc(c1)C(=O)N(Cc1cnc3oc(C(C)C)c(C#N)c3n1)[C@H](CC13CC(C1)C3)CO2` [Compound I-85] are > 60% and < 1000 nM.
The matching figures for `Cc1cccc(C)c1-c1cc2nc(n1)NS(=O)(=O)c1cccc(c1)C(=O)N(Cc1nc3c(cc1F)nc(C(C)C)n3C)[C@H](CC(C)(C)C)CO2` [Compound I-69]: > 60% and < 1000 nM.
Regarding `Cc1cccc(C)c1-c1cc2nc(n1)NS(=O)(=O)c1cccc(c1)C(=O)N(Cc1nc3c(cc1F)cc(C(C)C)n3C)[C@H](CC(C)(C)C)CO2` [Compound I-6], the Emax is > 60% and the EC50 was < 1000 nM.
With `Cc1cccc(C)c1-c1cc2nc(n1)NS(=O)(=O)c1cccc(c1)C(=O)N(Cc1cnc3oc(C(C)C)cc3n1)[C@H](CC1(C(F)(F)F)CC1)CO2` [Compound I-54], the Emax is > 60% and the 50% effective concentration (EC50) was < 1000 nM.
Consider `Cc1cccc(C)c1-c1cc2nc(n1)NS(=O)(=O)c1cccc(c1)C(=O)N(Cc1cnc3nc(C(C)C)n(C)c3n1)[C@H](CC1(C)CC1)CO2` [Compound I-75], for which the Emax was > 60% and the concentration giving a half-maximal response (EC50) was < 1000 nM.
The matching figures for `Cc1cccc(C)c1-c1cc2nc(n1)NS(=O)(=O)c1cccc(c1)C(=O)N(Cc1cnc3oc(C(C)C)cc3n1)[C@H](CC(C)C)CO2` [Compound I-1]: > 60% and < 1000 nM.
Regarding `Cc1cccc(C)c1-c1cc2nc(n1)NS(=O)(=O)c1cccc(c1)C(=O)N(Cc1cnc3oc(C(C)C)cc3n1)C(COC1CCC1)CO2` (single isomer, unassigned) [Compound I-49, 11-(cyclobutoxymethyl)-6-(2,6-dimethylphenyl)-12-[(6-isopropylfuro[2,3-b]pyrazin-2-yl)methyl]-2,2-dioxo-9-oxa-2λ^6-thia-3,5,12,19-tetrazatricyclo[12.3.1.14,8]nonadeca-1(18),4(19),5,7,14,16-hexaen-13-one], the Emax was > 60% and the EC50 is < 1000 nM.
In the same order, the values of `Cc1cccc(C)c1-c1cc2nc(n1)NS(=O)(=O)c1cccc(c1)C(=O)N(Cc1cnc3oc(C4CC4)cc3n1)[C@H](CC1(C)CC1)CO2` [Compound I-25] are > 60% and < 1000 nM.
The matching figures for `Cc1cccc(C)c1-c1cc2nc(n1)NS(=O)(=O)c1cccc(c1)C(=O)N(Cc1cn3ccc(C(C)C)cc3n1)[C@H](CC(C)(C)C)CO2` [III-1, (11R)-6-(2,6-dimethylphenyl)-11-(2,2-dimethylpropyl)-12-[(7-isopropylimidazo[1,2-a]pyridin-2-yl)methyl]-2,2-dioxo-9-oxa-2λ^6-thia-3,5,12,19-tetrazatricyclo[12.3.1.14,8]nonadeca-1(18),4(19),5,7,14,16-hexaen-13-one]: > 60% and < 1000 nM.
Take `Cc1cccc(C)c1-c1cc2nc(n1)NS(=O)(=O)c1cccc(c1)C(=O)N(Cc1cnc3oc(C4CC4)cc3n1)[C@H](C[C@H]1CCCCO1)CO2` (stereo in doubt) [Compound I-44]: the Emax is > 60% and the EC50 is < 1000 nM.

Source of the values: patent US20250340574A1, “MODULATORS OF CYSTIC FIBROSIS TRANSMEMBRANE CONDUCTANCE REGULATOR” (Vertex Pharmaceuticals Incorporated, priority 2022, published 2025).
